We go through three molecules from US7132231B2, “Fluorescence polarization method for determining viral inhibitors” (priority 2001, dated 2006).

Data set [1] addresses T1, Pol/UL42 interaction (Oregon Green-peptide E / MBP-UL42Δ340) (Human herpesvirus 1, UniProt P10226).
T1 construct: made in house; host or cells: E. coli BL21(de3)pLysS (UL42Δ340 fusion); peptide E synthetic
Briefly: Fluorescence polarization (FP) assay of Pol peptide/UL42 binding. The arrangement: species or system herpes simplex virus. As for the experimental part: Peptide probe and MBP-UL42. A peptide comprising the 18 C-terminal amino acids of HSV Pol (peptide E) was synthesized, N-terminally labeled with the pentafluorofluorescein-derivative Oregon Green 514 (Molecular Probes) and HPLC-purified. A truncated version of UL42 (UL42Δ340) was expressed in BL21(de3)pLysS E.coli as maltose binding protein fusion as described [Bridges et al. 2001] and purified over an amylose column (New England Biolabs). […] After elution with 10 mM maltose in 50 mM TrisHCl, 1 mM DTT, 0.5 mM EDTA, 4% Glycerol, 200 mM NaCl and Complete™ protease inhibitors (Roche Molecular Biochemicals), the protein was concentrated when necessary and stored at −80° C. until further use. After thawing, the purification buffer was exchanged to low fluorescent grade reagents (PanVera) and maltose was removed simultaneously using 10-DG Bio-Gel columns (BioRad). Fluorescence polarization assays. 1 nM of Oregon Green-peptide E was added to 7 uM MBP-UL42Δ340 and kept on ice until the mix was distributed into black 384-well plates (LJL Biosystems) in a total volume of 20 ul per well. The buffer conditions were 50 mM TrisHCl pH 7.5, 1 mM DTT, 0.5 mM EDTA, 150 mM NaCl, 4% Glycerol and 100 ug ml^−1 bovine gamma globulin. All chemicals were low fluorescent grade (PanVera).
Using this assay, the 16,320 compound Chembridge library that had been purchased by the Harvard Institute of Chemistry and Cell Biology (ICBB) was screened. Small molecules (5 mg ml^−1 in DMSO; ChemBridge) were screened using 384-pin arrays (Genetix), and 40 nl of each compound was transferred into every well. After incubation between 5 and 45 minutes at room temperature, the FP values were determined in the Analyst plate reader (LJL Biosystems). Chemicals for further testing were obtained from ChemBridge.
DNA polymerase long-chain synthesis assay. Compounds which elicited a decrease in the fluorescence polarization, when compared to control values, were tested for the ability to inhibit long-chain DNA synthesis via inhibition of polymerase subunit assembly [Digard et al. 1995; Bridges et al. 2001] using a poly-A template (Amersham Pharmacia) and an oligo-dT primer (Roche Molecular Biochemicals) on which Pol alone adds only a few bases. Reaction mixtures (50 mM Tris-HCl pH 7.5, 100 mM ammonium sulfate, 3 mM MgCl2, 0.1 mM EDTA, 1 mM DTT, 4% Glycerol, 40 ug ml^−1 BSA, 100 ug ml^−1 primer/template, 50 uM α-^32P-TTP (111 TBq/mmol; NEN Life Science products)), contained 200 fmol of HSV Pol ([Weisshart et al. 1994]), 400 fmol of HSV MBP-UL42 and varying amounts of compound in a final volume of 25 ul. Reactions were carried out at 37° C. for 5 minutes and stopped by adding 5 ul of alkaline loading buffer (2mM EDTA, 50mM NaOH, 2.5% glycerol, 0.025% bromocresol green) and placing them on ice and were then loaded onto an 4% alkaline agarose gel. Gels were dried over night and exposed to phosphorescence screens (BioRad). Catalytic subunit activity filter binding assay. Compounds which elicited a decrease in fluorescence polarization were tested for the ability to inhibit DNA synthesis by Pol alone using the oligo-(dT)/poly-(dA) primer-template. Reaction mixtures (50 mM TrisHCl pH 7.5, 100 mM ammonium sulfate, 3 mM MgCl2, 0.1 mM EDTA, 1 mM DTT, 4% Glycerol, 40 μg ml^31 1 BSA, 100 μg ml^−1 primer/template, 50 μM α-^32P-TTP (111 TBq/mmol)) contained 200 fmol of HSV Pol and various amounts of each compound in a final volume of 25 μl. Reactions were carried out at 37° C. for 25 minutes and stopped by placing 10 μl of the reaction mix onto DE81 filter discs. After washes in sodium hydrogen phosphate, water and ethanol, they were counted in a liquid scintillation analyzer (Packard 1600 TR). Plaque reduction assay. Confluent monolayers of Vero (African green monkey kidney) cells in 12-well dishes were infected with herpes virus strain 17 dilutions such that each well received between 25 and 50 PFU. […]
A general note: In fluorescence polarisation assays a small probe gives low polarisation when free and higher when bound to something large.

Data set [2] addresses T2, Pol/UL42 long-chain DNA synthesis (HSV Pol + HSV MBP-UL42) (Human herpesvirus 1, UniProt P10226).
T2 construct: in presence of the whole catalytic subunit; made in house; host or cells: UL42 fusion: E. coli BL21(de3)pLysS
Briefly: DNA polymerase long-chain synthesis assay. The format is biochemical, herpes simplex virus. As for the experimental part: (§1) DNA polymerase long-chain synthesis assay. Compounds which elicited a decrease in the fluorescence polarization, when compared to control values, were tested for the ability to inhibit long-chain DNA synthesis via inhibition of polymerase subunit assembly [Digard et al. 1995; Bridges et al. 2001] using a poly-A template (Amersham Pharmacia) and an oligo-dT primer (Roche Molecular Biochemicals) on which Pol alone adds only a few bases. Reaction mixtures (50 mM Tris-HCl pH 7.5, 100 mM ammonium sulfate, 3 mM MgCl2, 0.1 mM EDTA, 1 mM DTT, 4% Glycerol, 40 ug ml^−1 BSA, 100 ug ml^−1 primer/template, 50 uM α-^32P-TTP (111 TBq/mmol; NEN Life Science products)), contained 200 fmol of HSV Pol ([Weisshart et al. 1994]), 400 fmol of HSV MBP-UL42 and varying amounts of compound in a final volume of 25 ul. Reactions were carried out at 37° C. for 5 minutes and stopped by adding 5 ul of alkaline loading buffer (2mM EDTA, 50mM NaOH, 2.5% glycerol, 0.025% bromocresol green) and placing them on ice and were then loaded onto an 4% alkaline agarose gel. Gels were dried over night and exposed to phosphorescence screens (BioRad). Catalytic subunit activity filter binding assay. Compounds which elicited a decrease in fluorescence polarization were tested for the ability to inhibit DNA synthesis by Pol alone using the oligo-(dT)/poly-(dA) primer-template. Reaction mixtures (50 mM TrisHCl pH 7.5, 100 mM ammonium sulfate, 3 mM MgCl2, 0.1 mM EDTA, 1 mM DTT, 4% Glycerol, 40 μg ml^31 1 BSA, 100 μg ml^−1 primer/template, 50 μM α-^32P-TTP (111 TBq/mmol)) contained 200 fmol of HSV Pol and various amounts of each compound in a final volume of 25 μl. Reactions were carried out at 37° C. for 25 minutes and stopped by placing 10 μl of the reaction mix onto DE81 filter discs. After washes in sodium hydrogen phosphate, water and ethanol, they were counted in a liquid scintillation analyzer (Packard 1600 TR). Plaque reduction assay. Confluent monolayers of Vero (African green monkey kidney) cells in 12-well dishes were infected with herpes virus strain 17 dilutions such that each well received between 25 and 50 PFU. Diluted virus was absorbed to cells in 2 ml Dulbecco's modified Eagle's medium containing 2.5% newborn calf serum, 100 U penicillin G ml^−1 and 100 ug streptomycin sulfate ml^−1 for 1 hour at 37° C. in a humidified CO2 incubator. After absorption, triplicate infected cultures were overlaid with 2% methyl cellulose in Dulbecco's modified Eagle's medium containing 5% newborn calf serum, 100 U penicillin G ml^−1, 100 ug streptomycin sulfate ml^−1 and various concentrations of the compounds which elicited a decrease in fluorescence polarization and incubated at 37° C. in a humidified CO2 incubator. Plaques were visualized by crystal violet staining at 2 to 3 days post infection and were counted on the following day [Coen et al. 1985]. Cytotoxicity assays. Vero cells (5×10^4 cells per well) were seeded into 96-well plates and treated with various concentrations of the compounds (which elicited a decrease in the fluorescence polarization) for 72 h in quadruplicates. […] In parallel, equally compound-treated cells were fixed by adding 95% ethanol, stained with crystal violet solution and washed. After addition of 100 ul acidified ethanol (EtOH:HCl=99:1) to dissolve the crystal violet, the plates were read in the plate reader (Wallac). Viral yield assay. Vero cells were seeded into 96-well (5×10^4 cells per well) tissue culture plates in 0.2 ml Dulbecco's modified Eagle's medium containing 2.5% newborn calf serum and 100 U penicillin G ml^−1. Cultures were inoculated with HSV strain 17 at an MOI of 5 PFU per cell. The virus inoculum was replaced after two hours with medium containing dilution series of test compounds and left for 24 hours. After two cycles of freeze-thawing, each drug dilution row was transferred to a freshly seeded 96-well plate and serially 1:3 diluted over the whole plate. After two days, plaques were stained and counted under a microscope [Pritchard et al. 1990]. […]

Data set [3] addresses T3, HSV Pol (Human herpesvirus 1, UniProt P04293).
T3 construct: in presence of the whole catalytic subunit
Briefly: Catalytic subunit activity filter binding assay (Pol alone). The format is biochemical, herpes simplex virus. As for the experimental part:
as §1

In data set [4] the target is T4, HSV Pol (Human herpesvirus 1, UniProt P04293, N46K).
T4 construct: in presence of the whole catalytic subunit
Described as above. The format is biochemical, herpes simplex virus. The conditions noted are these: at higher compound concentrations, FIG. 5. As for the experimental part: as §1

Data set [5] can be described thus: Cytotoxicity assay (XTT / crystal violet). The conditions noted are these: monkey; Vero cells, 72 h; read-out: Toxicity IC50. The format is cell-based, African green monkey. How it is done:
as §1, with “Vero cells were seeded into 96-well (5×10^4 cells per well) tissue culture plates in 0.2 ml Dulbecco's modified Eagle's medium containing 2.5% newborn calf serum and 100 U penicillin G ml^−1. Cultures were inoculated with HSV strain 17 at an MOI of 5 PFU per cell. The virus inoculum was replaced after two hours with medium containing dilution series of test compounds and left for 24 hours. After two cycles of freeze-thawing, each drug dilution row was transferred to a freshly seeded 96-well plate and serially 1:3 diluted over the whole plate.” left out

For data set [6], the system named is Pol/UL42 long-chain DNA synthesis (HSV Pol + HSV MBP-UL42). The conditions noted are these: literature values [Digard et al. 1995; Bridges et al. 2000]; read-out: IC50 for specific inhibition of UL42 stimulated long-chain DNA synthesis; cited from earlier work.

T2 sequence (P10226 1-339): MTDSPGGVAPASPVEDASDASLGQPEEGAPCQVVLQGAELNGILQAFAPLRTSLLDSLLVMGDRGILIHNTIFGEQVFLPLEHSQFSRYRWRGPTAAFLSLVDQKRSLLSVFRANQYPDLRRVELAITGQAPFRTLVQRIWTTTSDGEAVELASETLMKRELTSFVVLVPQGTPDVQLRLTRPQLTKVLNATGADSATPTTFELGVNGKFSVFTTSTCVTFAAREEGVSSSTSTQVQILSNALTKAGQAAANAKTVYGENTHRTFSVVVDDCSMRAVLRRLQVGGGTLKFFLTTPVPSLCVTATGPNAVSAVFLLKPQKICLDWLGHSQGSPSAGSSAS
T1 sequence (P10226 1-339, stated change not applied): as the sequence (P10226 1-339) above
T4 sequence (P04293 whole entry N46K): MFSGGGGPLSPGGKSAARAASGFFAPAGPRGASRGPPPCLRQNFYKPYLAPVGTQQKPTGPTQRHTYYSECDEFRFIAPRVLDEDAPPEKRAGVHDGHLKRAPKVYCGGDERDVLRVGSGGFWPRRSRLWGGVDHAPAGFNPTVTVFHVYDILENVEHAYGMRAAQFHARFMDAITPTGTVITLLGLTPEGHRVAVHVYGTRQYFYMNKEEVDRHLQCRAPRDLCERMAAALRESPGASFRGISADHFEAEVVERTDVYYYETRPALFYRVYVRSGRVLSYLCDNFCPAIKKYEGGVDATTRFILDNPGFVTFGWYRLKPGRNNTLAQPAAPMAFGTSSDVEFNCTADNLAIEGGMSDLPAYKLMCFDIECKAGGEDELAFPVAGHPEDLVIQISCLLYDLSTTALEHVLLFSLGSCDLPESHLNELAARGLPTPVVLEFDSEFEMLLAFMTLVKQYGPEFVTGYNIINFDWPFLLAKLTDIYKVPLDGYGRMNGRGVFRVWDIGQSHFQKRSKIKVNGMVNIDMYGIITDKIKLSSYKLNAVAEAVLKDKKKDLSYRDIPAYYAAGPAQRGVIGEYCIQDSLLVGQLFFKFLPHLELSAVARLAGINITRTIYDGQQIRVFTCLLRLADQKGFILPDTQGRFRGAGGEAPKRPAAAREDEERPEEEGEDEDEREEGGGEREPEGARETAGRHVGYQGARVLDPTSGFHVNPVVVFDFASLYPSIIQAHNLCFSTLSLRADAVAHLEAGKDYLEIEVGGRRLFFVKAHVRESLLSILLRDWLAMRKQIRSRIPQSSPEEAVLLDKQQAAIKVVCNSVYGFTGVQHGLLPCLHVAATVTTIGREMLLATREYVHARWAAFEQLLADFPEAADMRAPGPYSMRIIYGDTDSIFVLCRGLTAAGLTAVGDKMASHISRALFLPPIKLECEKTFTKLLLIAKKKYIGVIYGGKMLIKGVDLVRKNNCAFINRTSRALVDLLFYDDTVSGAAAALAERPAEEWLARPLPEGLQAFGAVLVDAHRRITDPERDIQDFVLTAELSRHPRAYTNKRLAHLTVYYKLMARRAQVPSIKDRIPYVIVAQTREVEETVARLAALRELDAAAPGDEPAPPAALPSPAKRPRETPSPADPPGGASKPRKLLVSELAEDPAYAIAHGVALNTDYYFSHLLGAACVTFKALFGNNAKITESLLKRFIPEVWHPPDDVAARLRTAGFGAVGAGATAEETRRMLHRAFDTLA
T3 sequence (P04293 whole entry N46K): as above

What is called IC50 is the point on the concentration scale where inhibition reaches its midpoint. Regarding `CSCCC(C(=O)O)N1C(=O)/C(=C/c2ccc(Cl)cc2Cl)SC1=S` (stereo not drawn) [BP9], the IC50 is 48 µM in data set [1], 25 µM in data set [2] and 25 µM in data set [3]. Moreover, the “dose dependent change in the FP signal” value in data set [1] (serial dilution, FIG. 3) was “dose dependent change”. In addition, the “ability of UL42 to stimulate long-chain synthesis by Pol” value in data set [2] (FIG. 4, BP1, BP3, BP5 at 30 μM, BP9 at 100, 75, 50, 25 and 12 μM) is “greatly reduced”. Further, in data set [4], the “Pol activity in absence of UL42” value is given as “significantly reduced”. The CC50 at 72 h in data set [5] was determined as 200 µM.
As to `CSCC[C@H](NC(=O)[C@H](CCCNC(=N)N)NC(=O)[C@H](CCCNC(=N)N)NC(=O)[C@@H](NC(=O)[C@H](CCC(=O)O)NC(=O)[C@H](CCC(=O)O)NC(=O)[C@H](C)NC(=O)[C@@H](NC(=O)[C@H](C)NC(=O)CNC(=O)[C@H](C)NC(=O)CNC(=O)[C@@H](NC(=O)[C@H](C)NC(=O)CNC(=O)[C@H](Cc1ccccc1)NC(=O)CNC(=O)[C@H](C)NC(=O)[C@@H](NC(=O)[C@H](CCCNC(=N)N)NC(=O)[C@H](CC(C)C)NC(=O)[C@H](CCCNC(=N)N)NC(=O)[C@H](C)NC(=O)[C@H](C)NC(=O)[C@@H](NC(=O)[C@H](CC(=O)O)NC(=O)[C@H](CC(=O)O)NC(C)=O)C(C)C)[C@@H](C)O)C(C)C)[C@@H](C)O)[C@@H](C)O)C(=O)N[C@@H](CC(C)C)C(=O)N[C@@H](Cc1c[nH]cn1)C(=O)N[C@@H](CCCNC(=N)N)C(=O)N[C@@H](C)C(=O)N[C@@H](Cc1ccccc1)C(=O)N[C@@H](CC(=O)O)C(=O)N[C@H](C(=O)N[C@@H](CC(C)C)C(=O)N[C@@H](C)C(N)=O)[C@@H](C)O` [peptide A], in data set [6], the IC50 is 3 µM.
In the case of “ATAEEETRRMLHRAFDTLA [peptide E, Ac-Ala-Thr-Ala-Glu-Glu-Glu-Thr-Arg-Arg-Met-Leu-His-Arg-Ala-Phe-Asp-Thr-Leu-Ala-NH2]”, in data set [6], the IC50 was 11 µM.
